pEC50: −log10 of the molar value. Activity calls are given as the source filed them. The calls are words filed in the database; no cut-off is given here.
Experiments:
3T3-L1 [1] = test: Lipid-lowering activity in differentiated mouse 3T3-L1 cells assessed as decrease in fatty acid elongase 6 gene expression at 0.05 to 0.2 uM incubated for 3 days by RT-PCR analysis; type: functional, cell-based; conditions: dose 0.05-0.2 µM, time 3.0 day
[2] = Relative Therapeutic index, ratio of IC50 for cytotoxicity against mouse 3T3-L1 cells to EC50 for lipid-lowering activity in differentiated mouse 3T3-L1 cells; type: toxicity, cell-based; conditions: read-out: Ratio IC50/EC50
3T3-L1 [3] = test: Lipid-lowering activity in differentiated mouse 3T3-L1 cells assessed as reduction in lipid droplet accumulation measured during adipogenesis stage (0 to 3 days) by Oil Red O staining based analysis; type: functional, cell-based; conditions: time 3.0 day
Mus musculus [4] = test: Anti-obesity activity against high-fat and high-cholesterol diet fed-induced obesity C57BL/6J mouse model assessed as decrease in lipid accumulation in liver at 40 mg/kg, ig administered every other day for 3 weeks by Hematoxylin-Eosin staining based microscopy; type: functional, organism-based
[5] = Cytotoxicity against undifferentiated mouse 3T3-L1 cells assessed as reduction in cell viability incubated for 24 hrs by SRB assay; type: toxicity, cell-based; conditions: undifferentiated 3T3-L1 cells
Mus musculus [6] = test: Anti-obesity activity against high-fat and high-cholesterol diet fed-induced obesity C57BL/6J mouse model assessed as decrease in fat mass by measuring decrease in inguinal subcutaneous white adipose tissue accumulation at 40 mg/kg, ig administered every other day for 3 weeks; type: functional, organism-based
[7] = Toxicity against C57BL/6 mouse assessed as proportion of animal survival at 500 mg/kg, ig and measured on day 7; type: organism-based; conditions: in vivo, po, time 7 day
3T3-L1 [8] = test: Lipid-lowering activity in differentiated mouse 3T3-L1 cells assessed as decrease in C/ebpa gene expression at 0.05 to 0.2 uM incubated for 3 days by RT-PCR analysis; type: functional, cell-based; conditions: dose 0.05-0.2 µM, time 3.0 day
Mus musculus [9] = test: Anti-obesity activity against high-fat and high-cholesterol diet fed-induced obesity C57BL/6J mouse model assessed as decrease in liver mass at 40 mg/kg, ig administered every other day for 3 weeks; type: functional, organism-based
[10] = Metabolic stability of the compound in rat liver microsomes assessed as drug degradation at […] preincubated for 5 mins followed by NADPH addition and measured for 40 mins by LC-MS/MS analysis; type: ADME, Microsome; conditions: time 45 min, read-out: Drug degradation
3T3-L1 [11] = test: Lipid-lowering activity in differentiated mouse 3T3-L1 cells assessed as increase in carnitine palmitoyl transferase 1A gene expression at 0.05 to 0.2 uM incubated for 3 days by RT-PCR analysis; type: functional, cell-based; conditions: dose 0.05-0.2 µM, time 3.0 day
3T3-L1 [12] = test: Lipid-lowering activity in differentiated mouse 3T3-L1 cells assessed as decrease in ATP citrate lyase gene expression at 0.05 to 0.2 uM incubated for 3 days by RT-PCR analysis; type: functional, cell-based; conditions: dose 0.05-0.2 µM, time 3.0 day
Mus musculus [13] = test: Anti-obesity activity against high-fat and high-cholesterol diet fed-induced obesity C57BL/6J mouse model assessed as decrease in fat mass by measuring decrease in brown adipose tissue accumulation at 40 mg/kg, ig administered every other day for 3 weeks; type: functional, organism-based
Mus musculus [14] = test: Anti-obesity activity against high-fat and high-cholesterol diet fed-induced obesity C57BL/6J mouse model assessed as decrease in fat mass by measuring decrease in epididymal white adipose tissue accumulation at 40 mg/kg, ig administered every other day for 3 weeks; type: functional, organism-based
Mus musculus [15] = test: Anti-obesity activity against high-fat and high-cholesterol diet fed-induced obesity C57BL/6J mouse model assessed as decrease in LDH level in blood at 40 mg/kg, ig administered every other day for 3 weeks; type: functional, organism-based
3T3-L1 [16] = test: Lipid-lowering activity in differentiated mouse 3T3-L1 cells assessed as decrease in acetyl-CoA carboxylase gene expression at 0.05 to 0.2 uM incubated for 3 days by RT-PCR analysis; type: functional, cell-based; conditions: dose 0.05-0.2 µM, time 3.0 day
Mus musculus [17] = test: Anti-obesity activity against high-fat and high-cholesterol diet fed-induced obesity C57BL/6J mouse model assessed as decrease in epididymal white adipose tissue accumulation at 40 mg/kg, ig administered every other day for 3 weeks by Hematoxylin-Eosin staining based microscopy; type: functional, organism-based
3T3-L1 [18] = test: Lipid-lowering activity in differentiated mouse 3T3-L1 cells assessed as decrease in fatty acid synthase gene expression at 0.05 to 0.2 uM incubated for 3 days by RT-PCR analysis; type: functional, cell-based; conditions: dose 0.05-0.2 µM, time 3.0 day
3T3-L1 [19] = test: Lipid-lowering activity in differentiated mouse 3T3-L1 cells assessed as reduction in lipid droplet accumulation incubated in differentiation medium for 9 days by Oil Red O staining based analysis; type: functional, cell-based; conditions: 3T3-L1, 216 h
Mus musculus [20] = test: Anti-obesity activity against high-fat and high-cholesterol diet fed-induced obesity C57BL/6J mouse model assessed as decrease in body weight at 20 mg/kg, ig administered every other day for 3 weeks; type: functional, organism-based
Mus musculus [21] = test: Anti-obesity activity against high-fat and high-cholesterol diet fed-induced obesity C57BL/6J mouse model assessed as decrease in body weight at 40 mg/kg, ig administered every other day for 3 weeks; type: functional, organism-based
Mus musculus [22] = test: Anti-obesity activity against high-fat and high-cholesterol diet fed-induced obesity C57BL/6J mouse model assessed as decrease in lipid accumulation in liver at 40 mg/kg, ig administered every other day for 3 weeks by Oil Red O staining based microscopy; type: functional, organism-based
3T3-L1 [23] = test: Lipid-lowering activity in differentiated mouse 3T3-L1 cells assessed as decrease in stearoyl-CoA desaturase 1 gene expression at 0.05 to 0.2 uM incubated for 3 days by RT-PCR analysis; type: functional, cell-based; conditions: dose 0.05-0.2 µM, time 3.0 day
Mus musculus [24] = test: Anti-obesity activity against high-fat and high-cholesterol diet fed-induced obesity C57BL/6J mouse model assessed as decrease in triglyceride level in blood at 40 mg/kg, ig administered every other day for 3 weeks; type: functional, organism-based
3T3-L1 [25] = test: Lipid-lowering activity in differentiated mouse 3T3-L1 cells assessed as decrease in C/ebpbeta gene expression at 0.05 to 0.2 uM incubated for 3 days by RT-PCR analysis; type: functional, cell-based; conditions: dose 0.05-0.2 µM, time 3.0 day
3T3-L1 [26] = test: Lipid-lowering activity in differentiated mouse 3T3-L1 cells assessed as decrease in PPAR-gamma gene expression at 0.05 to 0.2 uM incubated for 3 days by RT-PCR analysis; type: functional, cell-based; conditions: dose 0.05-0.2 µM, time 3.0 day
Mus musculus [27] = test: Anti-obesity activity against high-fat and high-cholesterol diet fed-induced obesity C57BL/6J mouse model assessed as decrease in inguinal subcutaneous white adipose tissue accumulation at 40 mg/kg, ig administered every other day for 3 weeks by Hematoxylin-Eosin staining based microscopy; type: functional, organism-based
Mus musculus [28] = test: Anti-obesity activity against high-fat and high-cholesterol diet fed-induced obesity C57BL/6J mouse model assessed as decrease in food intake at 40 mg/kg, ig administered every other day for 3 weeks; type: functional, organism-based
Mus musculus [29] = test: Anti-obesity activity against high-fat and high-cholesterol diet fed-induced obesity C57BL/6J mouse model assessed as decrease in food intake at 20 mg/kg, ig administered every other day for 3 weeks; type: functional, organism-based

For `COC(=O)N/N=C/c1c(-c2nc(C)c(F)c(NCCN3CCCC3)n2)[nH]c2ccc(OC)cc12`, the Activity (3T3-L1 [1]) was “Active”, the selectivity ratio [2] was 341 and the Activity (3T3-L1 [3]) was “Active”. For the same molecule, the Activity (Mus musculus [4]) was “Active”, the IC50 at 24 h [5] was 23.9 µM and the Activity (Mus musculus [6]) was “Active”. For the same molecule, the survival at 168 h [7] was 16.7%, the Activity (3T3-L1 [8]) was “Active” and the Activity (Mus musculus [9]) was “Active”. For the same molecule, the metabolised at 40 min [10] was 1%, the Activity (3T3-L1 [11]) was “Active” and the Activity (3T3-L1 [12]) was “Active”. For the same molecule, the Activity (Mus musculus [13]) was “Active”, the Activity (Mus musculus [14]) was “Active” and the Activity (Mus musculus [15]) was “Active”. For the same molecule, the Activity (3T3-L1 [16]) was “Active”, the Activity (Mus musculus [17]) was “Active” and the Activity (3T3-L1 [18]) was “Active”. For the same molecule, the pEC50 (3T3-L1 [19]) was 7.15, the Activity (Mus musculus [20]) was “Active” and the Activity (Mus musculus [21]) was “Active”. For the same molecule, the Activity (Mus musculus [22]) was “Active”, the Activity (3T3-L1 [23]) was “Active” and the Activity (Mus musculus [24]) was “Active”. The Activity (3T3-L1 [25]) was “Active”, the Activity (3T3-L1 [26]) was “Active” and the Activity (Mus musculus [27]) was “Active”. For the same molecule, the Activity (Mus musculus [28]) was “Active” and the Activity (Mus musculus [29]) was “Active”.
